“Also recorded” adds a separate entry of the source. Bridge positions count the residues as written; N and C are the ends. Ends that are not written are not given here. Peptide text beside a SMILES is read from it.
Tests used:
[1] = system: HIV-1 CH042 (clade C transmitted-founder); conditions: TZM-bl cells, clade C CH042 TF HIV-1
Protocol: (§1) Figure 3 Size optimization of VIR-148. (A) TZM-bl reporter cells were incubated with increasing concentrations of VIR-148, VIR-102, or the indicated internally truncated itVIRIP derivatives. Cells were subsequently infected with HIV-1 NL4-3, and beta-galactosidase activity was determined 3 days after infection. (B) Hemolytic effect of indicated compounds on human erythrocytes. Each tile represents the area under the curve (AUC) for hemolytic activity. Full hemolysis is represented by a Triton-X control. (C) Amino acid alignment of the FP regions (red) of HIV-1 CH042, CH077, SIVmac239 and HIV-2 ROD10. (D) TZM-bl cells were incubated with increasing concentrations of VIR-148 or soVIRIP and subsequently infected with the HIV-1 CH042 or CH077, SIVmac239 or HIV-2 ROD10. […] The contribution of each amino acid to the binding interaction is indicated by color saturation. (F) Time-resolved ReaxFF-based molecular dynamics simulation of the interaction between soVIRIP and the HIV-1 FP. The trajectories are shown for VIR-148 (blue) and soVIRIP (orange). (G) Correlation between the free energy contribution of each amino acid of soVIRIP with the corresponding amino acid in VIR-148, based on ReaxFF simulations.
(§2) To determine infectious virus yield, 10,000 TZM-bl reporter cells/well were seeded in 96-well plates and infected with cell culture supernatants, under reduced 1% FCS conditions, in triplicates on the following day. Three days p.i., cells were lysed and β-galactosidase reporter gene expression was determined using the GalScreen Kit (Applied Bioscience) according to the manufacturer’s instructions with an Orion microplate luminometer (Berthold).
(§3) 10,000 TZM-bl reporter cells were seeded in 96-well plates in 100 μL of supplemented DMEM. The following day, the medium was changed to reduced 1% FCS-supplemented DMEM, and serially diluted peptide was added to the cells. The cells were subsequently infected with 10 μL of infectivity-normalized virus stocks. At 3 days postinfection, the supernatant was removed, and β-galactosidase activity was measured as previously described.

[2] = system: HIV-1 CH077 (clade B transmitted-founder); conditions: TZM-bl cells, clade B CH077 TF HIV-1
Protocol: as §1, §2, §3

zebrafish embryos = assay: Zebrafish embryo toxicity; conditions: for toxicity in zebrafish embryos: embryos exposed from 24 hpf for 24 h, 60 embryos per group, two experiments, NRC-03 3 μM, abamectin 3.125 μM
Protocol: For in vivo studies, wild-type zebrafish embryos (Danio rerio) were dechorionated at 24 h post fertilization (hpf) using digestion with 1 mg/mL Pronase (Sigma) in E3 medium ([…]). In a 96-well plate, 3 embryos per well were exposed for 24 h to 100 μL of E3 containing VIRIP peptides at the concentrations indicated in the figures. Two independent assays were performed, each with 10 × 3 embryos. The peptide solvent (DMSO), diluted in E3, was used as negative control at the same amount as introduced by the peptide stock. […] Abamectin at a concentration of 3.125 μM was used as positive control for neurotoxicity.[49] At 48 hpf (after 24 h of incubation) embryos were scored in a stereomicroscope for signs of cytotoxicity (lysis and/or necrosis), developmental toxicity (delay and/or malformations) or cardiotoxicity (heart edema and/or reduced or absent circulation). Each embryo was also touched with a needle and reduced or absent touch response (escape movements) was evaluated as signs of neurotoxicity if and only if no signs of acute toxicity were present in the same embryo. Embryos were categorized within each of these toxicity categories into several classes of severity.[35]

HIV-1 NL4-3 = system: HIV-1 NL4-3
Description: To further define critical residues and to assess whether the loop structure is required for antiviral activity, we generated short peptides of six, seven or ten amino acids corresponding to the C- or N-termini of VIR-148, respectively. To determine their antiviral activity, we pretreated TZM-bl reporter cells with various concentrations of individual or mixed peptides and subsequently exposed them to the CXCR4-tropic HIV-1 NL4–3 strain. TZM-bl reporter cells are highly susceptible to HIV-1 infection and contain the β-galactosidase reporter gene under the control of the HIV-1 long terminal repeat.[34] Three days later, infection was quantified by β-galactosidase assay.
as §2, §3

HIV-2 ROD10 = assay: TZM-bl infection inhibition, HIV-2 ROD10; assay type: cell-based; conditions: TZM-bl cells
Protocol: (§4) Figure 3 Size optimization of VIR-148. (A) TZM-bl reporter cells were incubated with increasing concentrations of VIR-148, VIR-102, or the indicated internally truncated itVIRIP derivatives. Cells were subsequently infected with HIV-1 NL4-3, and beta-galactosidase activity was determined 3 days after infection. (B) Hemolytic effect of indicated compounds on human erythrocytes. Each tile represents the area under the curve (AUC) for hemolytic activity. Full hemolysis is represented by a Triton-X control. (C) Amino acid alignment of the FP regions (red) of HIV-1 CH042, CH077, SIVmac239 and HIV-2 ROD10. […]
as §2
(§5) 10,000 TZM-bl reporter cells were seeded in 96-well plates in 100 μL of supplemented DMEM. […] At 3 days postinfection, the supernatant was removed, and β-galactosidase activity was measured as previously described.

SIVmac239 = assay: TZM-bl infection inhibition, SIVmac239; assay type: cell-based, SIVmac; conditions: TZM-bl cells
Protocol: as §4, §2, §5

Molecule	IC50 [1] [nM]	IC50 [2] [nM]	toxicity in zebrafish embryos (zebrafish embryos)	IC50 (HIV-1 NL4-3; NL4-3) [nM]	antiviral activity (in words) (HIV-1 NL4-3; TZM-bl reporter cells, HIV-1 NL4-3, β-galactosidase 3 days postinfection)	higher antiviral activity compared to the original VIRIP (HIV-1 NL4-3; ratio of IC50 values)	activity against HIV-2 ROD10 (HIV-2 ROD10)	activity against SIVmac239 (SIVmac239)	nontoxic concentration relative to IC50 against primary HIV-1 strains (zebrafish embryos; zebrafish embryos)
CC[C@H](C)[C@H](NC(=O)[C@H](C)NC(=O)[C@H](CCC(=O)O)NC(=O)[C@@H](N)CC(C)C)C(=O)N1CCC[C@H]1C(=O)N[C@H]1CSSC[C@@H](C(=O)N[C@H](C(=O)N[C@@H](C)C(=O)N[C@@H](Cc2ccccc2)C(=O)N[C@@H](CC(N)=O)C(=O)N[C@@H](CCCCN)C(=O)N2CCC[C@H]2C(=O)N[C@@H](Cc2ccccc2)C(=O)N[C@H](C(=O)N[C@@H](Cc2ccccc2)C(=O)O)C(C)C)C(C)C)NC(=O)[C@@H]2CCCN2C(=O)[C@@H]2CCCN2C(=O)[C@H]([C@@H](C)CC)NC(=O)[C@H](CO)NC1=O [VIR-148, reference compound] (H-LEAIPCSIPPCVAFNKPFVF-OH; disulfide 6-11)	37	39	–	–	–	–	–	–	–
GRRKRKWLRRIGKGVKIIGG AALDHL-NH2 [NRC-03, reference compound]	–	–	exhibited the expected toxicities	–	–	–	–	–	–
LEAIPVAFVF [soVIRIP]	37	39	did not display significant toxic effects; also recorded: nontoxic	120	maintained full antiviral activity	more than 100 fold	inactive	inactive	about 2,500 fold
abamectin [reference compound]	–	–	exhibited the expected toxicities	–	–	–	–	–	–
